The subject of test [1] is C57BL/6 mice with hair follicles in the telogen phase. Nature of the test: Hair growth in hair-removed C57BL/6 mice, evaluated on Day 21 (visual/Image J, H&E). In kind it is in vivo. The settings on record: for skin area converted to black (anagen phase) with respect to the total hair-removed skin area / skin area with actual hair growth as a percentage of the total hair removal skin area: 50 μL.
Protocol: 7-week-old C57BL/6 mice (Orient Bio, Korea) with hair follicles in the telogen phase were purchased and the experiment was performed. The experiment was conducted using 4 mice each for 6 experimental groups of a vehicle-applied control group (topical control), a Minoxidil-applied positive control group (topical Minoxidil), an Cp 1-applied group (topical Cp 1), a candlelit-shaped microneedle control group (CMN control), an Cp 1 microneedle administration group (Cp 1 conv-DMN) and an Cp 1 candlelit-shaped microneedle administration group (Cp 1 CMN).
In the topical formulation, polyethylene glycol 400 (PEG 400; Sigma-Aldrich, St. Louis, MO, USA) and ethanol (99.5°; Sigma-Aldrich) were mixed in 50 μL solution with a ratio of 7:3 (v/v) containing 2% (w/v) of minoxidil (Sigma-Aldrich) and 0.002% (w/v) of Cp-1 (2 μg per day). The topical formulation groups' 50 μL solutions were administered twice a day.
The experiment was started in a pink skin condition by removing the hair on the back of the mice, and the drug application was carried out twice a day for 21 days, and when injected using a microneedle, it was injected once every 2 days and was not injected on last Day 21.
On Day 21 of the administration, the area in which the color of the back of the mice was changed to black, that is, the area converted to the anagen phase among the shaved areas was analyzed with the naked eye and the Image J software (National Institutes of Health, Bethesda, MD, USA), which is an image analysis program.
On Day 21 of the administration, the ratio of actual hair growth on the back of the mice was analyzed with the naked eye and the Image J software (National Institutes of Health, Bethesda, MD, USA), which is an image analysis program.
On Day 21 of the administration, the distribution rate by hair growth cycle in mice was compared.

A further test has as its system MECA 32. The test is described as follows: Immunohistochemical staining of mouse back skin, vascular endothelial cell marker MECA 32. It counts as in vivo, mice. To be noted: Day 21. From the text:
(§1) The development of skin tissue, which becomes the surrounding support for hair growth, plays an important role in hair growth. As such, in order to compare the degree of the development of skin tissue in 6 experimental groups of the vehicle-applied control group (topical control), the Minoxidil-applied positive control group (topical minoxidil), the Cp 1 application group (topical Cp 1), the candlelit-shaped microneedle control group (CMN control), the Cp 1 microneedle administration group (Cp 1 conv-DMN) and the Cp 1 candlelit-shaped microneedle administration group (Cp 1 CMN), β-catenin and PCNA, which are biomarkers indicating skin tissue proliferation, the vascular endothelial cell marker MECA 32 showing the development of the vascular network around the mouse hair follicle, and the dermal papilla cell (DP) marker Versican (VCAN), which is generated in the hair follicle anagen phase showing the hair follicle anagen phase inducing effect, were observed by immunohistochemical staining. To this end, as in Example 1-2, the back tissue of the mice was collected on Day 21, then the frozen tissue was sectioned, and the fluorescent material-conjugated antibody was treated on the tissue, and then the fluorescence images were analyzed. The antibodies used were β-catenin (BD Biosciences, San Jose, CA, USA), PCNA (LSBIO, Seattle, WA, USA), VCAN (LSBIO, Seattle, WA, USA) and MECA-32 (Novus Biologicals, CA, USA), respectively.

The subject of another test is Versican (VCAN). The test is described as follows: Immunohistochemical staining of mouse back skin, dermal papilla cell marker Versican (VCAN). In kind it is in vivo, mice. To be noted: Day 21.
Source text: as §1

The subject of a further test is β-catenin. The test is described as follows: Immunohistochemical staining of mouse back skin, β-catenin. It counts as in vivo, mice. To be noted: Day 21.
Source text: as §1

Setting [2] is: topical application twice a day.
Setting [3] is: topical application twice a day, 2% (w/v) minoxidil or 0.002% (w/v) Cp 1.
Where [4] appears, read: general microneedle or candlelit-shaped microneedle.

Entries after “also recorded” stand apart in the source; their conditions may differ.

As for `Nc1cc(N2CCCCC2)nc(N)[n+]1[O-]` [Minoxidil, 2,4-diamino-6-piperidinopyrimidine-3-oxide, reference compound], the “hair growth effect and skin tissue development (visual observation, H&E)” value in test [1] (setting [2]) is given as “increased skin thicknesses along with the hair growth effect”. Moreover, in test [1] (setting [3]), the “hair follicles converted to the anagen phase (distribution rate by hair growth cycle, H&E)” value was 52.5±1.3%; the “skin area converted to black (anagen phase) with respect to the total hair-removed skin area” value is on record as 65.3±22.3%; the “skin area with actual hair growth as a percentage of the total hair removal skin area” value is 38.4±17.1%. In addition, in the test with MECA 32 (topical application), the “expression level of MECA 32 (rank order of groups)” value is “increased in the order of Minoxidil application. Cp 1 application, Cp 1 administration using a general microneedle and M-19 administration using a candlelit-shaped microneedle”. Moreover, the “expression level of VCAN (rank order of groups)” value in the test with Versican (VCAN) (topical application) is “increased in the order of Minoxidil application, Cp 1 application, Cp 1 administration using a general microneedle and M-19 administration using a candlelit-shaped microneedle”.
Regarding `CCCOc1ccc(S(=O)(=O)N2CCC(CCO[N+](=O)[O-])(CCO[N+](=O)[O-])CC2)cc1-c1nc2c(CCC)cn(CC)c2c(=O)[nH]1` [Cp 1, (1-((3-(5-ethyl-4-oxo-7-propyl-4,5-dihydro-3H-pyrrolo[3,2-d]pyrimidin-2-yl)-4-propoxyphenyl)sulfonyl)piperidine-4,4-diyl)bis(ethane-2,1-diyl) dinitrate], the “skin thickness and hair thickness” value in test [1] (administered using microneedles, especially candlelit-shaped microneedles) is “more significantly improved skin thickening effect and hair thickness improvement effect”; in test [1] (topical application, compared to topical Minoxidil), “more improved skin thickening effect and hair thickness improvement effect”. The “hair growth effect and skin tissue development (visual observation, H&E)” value in test [1] (setting [2]) is given as “increased skin thicknesses along with the hair growth effect; also recorded: more effective than Minoxidil treatment”. Further, in test [1] (setting [3]), the “skin area converted to black (anagen phase) with respect to the total hair-removed skin area” value is reported as 92.1±3.0%. Also, the “skin area with actual hair growth as a percentage of the total hair removal skin area” value in test [1] (setting [3]) was 61.0±14.0%. For the same compound, the β-catenin expression entry is reported as “higher” in the test on β-catenin (Cp 1 applied, compared with Minoxidil applied); “highest β-catenin expression effect” in the test with β-catenin (administered using a candlelit-shaped microneedle); “higher” with β-catenin (administered with a microneedle, compared with Minoxidil applied). Moreover, the “expression level of MECA 32 (rank order of groups)” value was “increased in the order of Minoxidil application. Cp 1 application, Cp 1 administration using a general microneedle and M-19 administration using a candlelit-shaped microneedle” in the test with MECA 32 (setting [4]); “increased in the order of Minoxidil application. Cp 1 application, Cp 1 administration using a general microneedle and M-19 administration using a candlelit-shaped microneedle” in the test on MECA 32 (topical application). In addition, the “expression level of VCAN (rank order of groups)” value with Versican (VCAN) (setting [4]) was “increased in the order of Minoxidil application, Cp 1 application, Cp 1 administration using a general microneedle and M-19 administration using a candlelit-shaped microneedle”; in the test with Versican (VCAN) (topical application) it was “increased in the order of Minoxidil application, Cp 1 application, Cp 1 administration using a general microneedle and M-19 administration using a candlelit-shaped microneedle”.

Values taken from patent US20250195522A1, “TRANSDERMAL DOSAGE FORM, FOR PROMOTING LOCAL BLOOD FLOW, OF DUAL-ACTING PDE5 INHIBITOR/ORGANIC NITRATE ESTER” (UIF (University Industry Foundation), Yonsei University, priority 2022, published 2025).
